Reference: patent publication US5444174A, “16-membered macrolide derivative having sustained antibacterial activity in plasma, synthesis intermediate thereof and process for producing the same” (Meiji Seika Kaisha, Ltd., priority 1992, dated 1995)
≈ marks a conversion by molar mass, not a printed value.

Legend:
[1] = system: gram-positive bacteria; assay: Antibacterial activities against gram-positive bacteria (summary of Table 1); type: cell-based; settings: in words
Method: (§1) Antibacterial activities of the compounds of formula (I) are shown in Table 1 in terms of minimum inhibitory concentration (MIC).
(§2) Minimum inhibitory concentration was determined by the agar plate dilution method. Test strains were subjected to seed culture using Sensitivity test broth (STB, Nissui Pharmaceutical) except that the strains belonging to the genus Streptococcus, Branhamella and Haemophilus were cultured on blood agar plate. A 5 μl portion of cell suspension of the test strains having about 10^6 CFU/ml was inoculated into Sensitivity disk agar (SDA, Nissui Pharmaceutical) supplemented with 5% horse blood and incubated at 37° C. for 20 hours. Then, MIC was measured.

[2] = system: M. luteus; type: in vitro ADME
Method: Each test compound and 50 μl of a methanol solution (10,000 γ) were added to 950 μl of thawed rat plasma and the resulting mixture was incubated at 37° C. A 20 μl portion of the mixture was sampled after 0, 1, 3, 6 and 24 hours and added to 980 μl of 0.05M phosphate buffer (pH 7.2). A 20 μl portion of the sample solution was used to measure antibacterial activity against M. luteus. Separately, the calibration curve was prepared by using a methanol solution containing each test compound. The starting activity of each compound in the plasma was referred to as 100%.
Changes in the antibacterial activities of miokamycin and the compound (14) against M. luteus were measured in the same manner as described above except for using fresh rat plasma in place of thawed rat plasma. The fresh rat plasma was prepared by collecting 50 ml of blood from five rats, treating the blood with heparin and subjecting it to centrifugation to obtain plasma.

[3] = system: Sta. aureus MS15026; assay: Antibacterial activity (MIC), agar plate dilution method; type: cell-based; settings: Staphylococcus aureus, 37° C., 20 hours
Method: as §1, §2

[4] = system: Sta. aureus MS15009/pMS99; assay: as above; type: cell-based; settings: Staphylococcus aureus, MS15009/PMS99, 20 h, read-out: Antibacterial activity (MIC)
Method: as §1, §2

[5] = system: S. pneumoniae IP692; assay: as above; type: cell-based; settings: Streptococcus pneumoniae, 37° C., 20 hours, blood agar seed culture
Method: as §1, §2

[6] = system: B. catarrhalis W-0500; assay: as above; type: cell-based; settings: Moraxella catarrhalis, W0500; 37° C., 20 hours; blood agar seed culture; B. catarrhalis W-0500; read-out: Antibacterial activity (MIC)
Method: as §1, §2

[7] = system: Ent. faecalis W-73; assay: as above; type: cell-based; settings: Enterococcus faecalis, W73, 37° C., 20 hours
Method: as §1, §2

[8] = system: H. influenza 9334; assay: as above; type: cell-based; settings: 37° C., 20 hours, blood agar seed culture
Method: as §1, §2

[9] = system: M. luteus ATCC 9341; assay: as above; type: cell-based; settings: Micrococcus luteus, ATCC9341, 37° C., 20 hours
Method: as §1, §2

[10] = system: B. catarrhalis W-0506; assay: as above; type: cell-based; settings: Moraxella catarrhalis, W0506; 37° C., 20 hours; blood agar seed culture; B. catarrhalis W-0506; read-out: Antibacterial activity (MIC)
Method: as §1, §2

[11] = system: Sta. aureus 209P JC-1; assay: as above; type: cell-based; settings: Staphylococcus aureus, 37° C., 20 hours
Method: as §1, §2

[12] = system: S. pneumoniae Type 1; assay: as above; type: cell-based; settings: Streptococcus pneumoniae, TYPE1, 37° C., 20 hours, blood agar seed culture
Method: as §1, §2

[13] = system: Sta. aureus MS15009/pMS98; assay: as above; type: cell-based; settings: Staphylococcus aureus, MS15009/PMS98, 20 h, read-out: Antibacterial activity (MIC)
Method: as §1, §2

[14] = system: K. pneumoniae PC1602; assay: as above; type: cell-based; settings: Klebsiella pneumoniae, 37° C., 20 hours
Method: as §1, §2

[15] = system: Sta. aureus M126; assay: as above; type: cell-based; settings: Staphylococcus aureus, 37° C., 20 hours
Method: as §1, §2

[16] = system: S. Pyogenes Cook; assay: as above; type: cell-based; settings: Streptococcus pyogenes, 37° C., 20 hours, blood agar seed culture
Method: as §1, §2

[17] = system: Sta. aureus MS15027; assay: as above; type: cell-based; settings: Staphylococcus aureus; 37° C., 20 hours; Sta. aureus MS15027; read-out: Antibacterial activity (MIC)
Method: as §1, §2

[18] = system: E. coli NIHJ JC-2; assay: as above; type: cell-based; settings: Escherichia coli, NIHJJC2, 37° C., 20 hours
Method: as §1, §2

[19] = system: Sta. aureus M133; assay: as above; type: cell-based; settings: Staphylococcus aureus; 37° C., 20 hours; Sta. aureus M133; read-out: Antibacterial activity (MIC)
Method: as §1, §2

[20] = system: Sta. epidermidis ATCC 14990; assay: as above; type: cell-based; settings: Staphylococcus epidermidis, ATCC14990; 37° C., 20 hours; Sta. epidermidis ATCC 14990; read-out: Antibacterial activity (MIC)
Method: as §1, §2

[21] = cited from earlier work
[22] = vs midecamycin; cited from earlier work
[23] = human compared with rat; cited from earlier work
[24] = cited from earlier work; remark: listed apart in the source
[25] = Storage stability of synthesis intermediates; type: physicochemical; settings: room temperature storage

| Structure (SMILES) | MIC [3] | MIC [4] | MIC [5] | MIC [6] | MIC [7] | MIC [8] | MIC [9] | MIC [10] | MIC [11] | MIC [12] | MIC [13] | MIC [14] | MIC [15] | MIC [16] | MIC [17] | MIC [18] | MIC [19] | MIC [20] | also measured |
| --- | --- | --- | --- | --- | --- | --- | --- | --- | --- | --- | --- | --- | --- | --- | --- | --- | --- | --- | --- |
| CCC(=O)O[C@@H]1CC(=O)O[C@H](C)C/C=C/C=C/C(=O)[C@H](C)C[C@H](CC=O)[C@H](O[C@@H]2O[C@H](C)[C@@H](O[C@H]3C[C@@](C)(OC)[C@@H](OCCC(C)C)[C@H](C)O3)[C@H](N(C)C)[C@H]2O)[C@H]1OC [Compound (14)] | > 100 µg/mL | > 100 µg/mL | 0.1 µg/mL (≈ 0.119 µM) | 0.78 µg/mL (≈ 0.929 µM) | 1.56 µg/mL (≈ 1.86 µM) | 6.25 µg/mL (≈ 7.44 µM) | 0.1 µg/mL (≈ 0.119 µM) | 0.78 µg/mL (≈ 0.929 µM) | 0.2 µg/mL (≈ 0.238 µM) | 0.2 µg/mL (≈ 0.238 µM) | 0.78 µg/mL (≈ 0.929 µM) | > 100 µg/mL | > 100 µg/mL | 0.05 µg/mL (≈ 0.0595 µM) | 0.78 µg/mL (≈ 0.929 µM) | > 100 µg/mL | 0.78 µg/mL (≈ 0.929 µM) | 0.78 µg/mL (≈ 0.929 µM) | antibacterial activities against gram-positive bacteria [1]: have antibacterial activities against gram-positive bacteria; antibacterial activities compared with miokamycin ([1]; vs miokamycin): excellent antibacterial activities exceeding that of miokamycin; antibacterial activity in rat plasma over time [2]: antibacterial activity sustaining for a prolonged period of time in rat plasma; degree of the decrease in the antibacterial activity in plasma [2]: clearly lower degree of the decrease in the antibacterial activity in plasma, compared with miokamycin; metabolism at the mycarose moiety in plasma [2]: hardly metabolized at the mycarose moiety |
| CCC(=O)O[C@@H]1CC(=O)O[C@H](C)C/C=C/C=C/[C@H](OC(C)=O)[C@H](C)C[C@H](CC=O)[C@H](O[C@@H]2O[C@H](C)[C@@H](O[C@H]3C[C@@](C)(OC(C)=O)[C@@H](OC(=O)CC)[C@H](C)O3)[C@H](N(C)C)[C@H]2O)[C@H]1OC [Miokamycin, miokamycin, reference compound] | > 100 µg/mL | > 100 µg/mL | 0.2 µg/mL (≈ 0.223 µM) | 1.56 µg/mL (≈ 1.74 µM) | 1.56 µg/mL (≈ 1.74 µM) | 6.25 µg/mL (≈ 6.96 µM) | 0.1 µg/mL (≈ 0.111 µM) | 1.56 µg/mL (≈ 1.74 µM) | 0.2 µg/mL (≈ 0.223 µM) | 0.2 µg/mL (≈ 0.223 µM) | 0.78 µg/mL (≈ 0.869 µM) | > 100 µg/mL | > 100 µg/mL | 0.1 µg/mL (≈ 0.111 µM) | 0.78 µg/mL (≈ 0.869 µM) | > 100 µg/mL | 0.78 µg/mL (≈ 0.869 µM) | 0.78 µg/mL (≈ 0.869 µM) | recovery ratio in urine ([21]; vs midecamycin): superior to midecamycin; dynamics in vivo ([21]; vs natural compounds): superior in the dynamics in vivo to natural compounds; infection-protective action in vivo [22]: superior to midecamycin; metabolic pattern of the deacylation of the mycarose moiety in human [23]: almost similar to that in rat; antibacterial activity after metabolism in vivo [24]: the antibacterial activity of this antibiotic is reduced; elimination of acyl group at the mycarose moiety in vivo [24]: eliminated in vivo |
| CCC(=O)O[C@@H]1CC(=O)O[C@H](C)C/C=C/C=C/C(=O)[C@H](C)C[C@H](CC2OCCO2)[C@H](O[C@@H]2O[C@H](C)[C@@H](O)[C@H]([N+](C)(C)[O-])[C@H]2O)[C@H]1OC [Compound (2)] |  |  |  |  |  |  |  |  |  |  |  |  |  |  |  |  |  |  | stability [25]: so stable as to be stored at room temperature for a prolonged period of time |
